Test system: AND1 PSC
Test: Megakaryocyte precursor analysis (CD34+ and CD34+CD41a+) in EBs by flow cytometry
Assay type: cell-based, human
Settings: wild-type AND1 PSCs, TSA 10 and 100 nM from start, day 14, vs DMSO
Description: The emergence of megakaryocyte precursor cells (CD34+ and CD34+ CD41a^+) during EB differentiation stages on days 10, 14 and 17 of differentiation was evaluated. One third of the EBs growing in a 6-well plate were collected and washed once with PBS. Similarly, to evaluate the effect of Trichostatin A (TSA) on differentiation, the EBs were treated with 10 nM or 100 nM of DMSO or TSA for 14 days. In both cases, the EBs were disassociated with collagenase B and disassociation buffer as described previously. A homogenous cell suspension was obtained after washing the EBs with PBS and being carefully resuspended in […] of PBS with 2% FCS and 2 mM of EDTA until no clumps were observed. The disassociated cells were stained with anti-CD34-PECy7 antibodies (Miltenyi Biotec,
Bergisch Gladbach, Germany) and anti-CD41 a-PE antibodies and 7AAD. Living cells identified by 7AAD exclusion were analyzed using a FACSCanto II flow cytometer.

`CC(/C=C/C(=O)NO)=C\[C@@H](C)C(=O)c1ccc(N(C)C)cc1` [Trichostatin A] was tested, and the “CD34+ CD41+ megakaryocyte progenitors” value was “accelerates the emergence of megakaryocyte progenitors” and the “CD34+ CD41+ megakaryocyte progenitors” value (listed as TSA) was “increase”.

From US20160312185A1, “METHOD FOR PRODUCING MEGAKARYOCYTES AND PLATELETS” (FUNDACIÓN PÚBLICA ANDALUZA PROGRESO Y SALUD, priority 2013, published 2016)
